{"source": "ChEMBL document CHEMBL1152576", "about": "“E-Combretastatin and E-resveratrol structural modifications: antimicrobial and cancer cell growth inhibitory beta-E-nitrostyrenes” (Bioorg Med Chem, 2009)", "note": "Active and inactive are the calls of the source. The rule behind the calls is not given here."}
{"system": "KM-20L2", "experiment": "Cytotoxicity against human KM20L2 cells after 48 hrs by sulforhodamine B assay", "assay_type": "functional", "conditions": "not given"}
{"smiles": "COc1cc(/C=C/[N+](=O)[O-])cc2c1OCO2", "GI50": "inactive"}
{"system": "Micrococcus luteus", "experiment": "Antimicrobial activity against Micrococcus luteus Presque Isle 456 by broth microdilution susceptibility assay", "assay_type": "functional", "conditions": "not given", "units": {"MIC": "µg/mL"}}
{"smiles": "COc1cc(/C=C/[N+](=O)[O-])cc2c1OCO2", "MIC": "> 64"}
{"system": "Stenotrophomonas maltophilia", "experiment": "Antimicrobial activity against Stenotrophomonas maltophilia ATCC 13637 assessed clear zone in inhibition per disk by CLSI disk diffusion susceptibility assay", "assay_type": "functional", "conditions": "not given", "units": {"MIC": "µg"}}
{"smiles": "COc1cc(/C=C/[N+](=O)[O-])cc2c1OCO2", "MIC": ">100"}
{"system": "NCI-H460", "experiment": "Cytotoxicity against human NCI-H460 cells after 48 hrs by sulforhodamine B assay", "assay_type": "functional", "conditions": "not given"}
{"smiles": "COc1cc(/C=C/[N+](=O)[O-])cc2c1OCO2", "GI50": "inactive"}
{"system": "OVCAR-3", "experiment": "Cytotoxicity against human OVCAR-3 cells after 48 hrs by sulforhodamine B assay", "assay_type": "functional", "conditions": "not given"}
{"smiles": "COc1cc(/C=C/[N+](=O)[O-])cc2c1OCO2", "GI50": "inactive"}
{"system": "Enterococcus faecalis", "experiment": "Antimicrobial activity against Enterococcus faecalis ATCC 29212 by broth microdilution susceptibility assay", "assay_type": "functional", "conditions": "not given", "units": {"MIC": "µg/mL"}}
{"smiles": "COc1cc(/C=C/[N+](=O)[O-])cc2c1OCO2", "MIC": "> 64"}
{"system": "Candida albicans", "experiment": "Antimicrobial activity against Candida albicans ATCC 90028 assessed clear zone in inhibition per disk by CLSI disk diffusion susceptibility assay", "assay_type": "functional", "conditions": "not given", "units": {"MIC": "µg"}}
{"smiles": "COc1cc(/C=C/[N+](=O)[O-])cc2c1OCO2", "MIC": 1.56}
{"system": "Streptococcus pneumoniae", "experiment": "Antimicrobial activity against Streptococcus pneumoniae ATCC 6303 by broth microdilution susceptibility assay", "assay_type": "functional", "conditions": "not given", "units": {"MIC": "µg/mL"}}
{"smiles": "COc1cc(/C=C/[N+](=O)[O-])cc2c1OCO2", "MIC": "> 64"}
{"system": "Escherichia coli", "experiment": "Antimicrobial activity against Escherichia coli ATCC 25922 assessed clear zone in inhibition per disk by CLSI disk diffusion susceptibility assay", "assay_type": "functional", "conditions": "not given", "units": {"MIC": "µg"}}
{"smiles": "COc1cc(/C=C/[N+](=O)[O-])cc2c1OCO2", "MIC": ">100"}
{"system": "SF-268", "experiment": "Cytotoxicity against human SF268 cells after 48 hrs by sulforhodamine B assay", "assay_type": "functional", "conditions": "not given"}
{"smiles": "COc1cc(/C=C/[N+](=O)[O-])cc2c1OCO2", "GI50": "inactive"}
{"system": "Staphylococcus aureus", "experiment": "Antimicrobial activity against Staphylococcus aureus ATCC 29213 assessed clear zone in inhibition per disk by CLSI disk diffusion susceptibility assay", "assay_type": "functional", "conditions": "not given", "units": {"MIC": "µg"}}
{"smiles": "COc1cc(/C=C/[N+](=O)[O-])cc2c1OCO2", "MIC": ">100"}
{"system": "Cryptococcus neoformans", "experiment": "Antifungal activity against Cryptococcus neoformans ATCC 90112 after 72 hrs by broth microdilution susceptibility assay", "assay_type": "functional", "conditions": "ATCC 90112, 72 h", "units": {"MIC": "µg/mL"}}
{"smiles": "COc1cc(/C=C/[N+](=O)[O-])cc2c1OCO2", "MIC": 64}
{"system": "BXPC-3", "experiment": "Cytotoxicity against human BxPC3 cells after 48 hrs by sulforhodamine B assay", "assay_type": "functional", "conditions": "not given"}
{"smiles": "COc1cc(/C=C/[N+](=O)[O-])cc2c1OCO2", "GI50": "inactive"}
{"system": "Enterobacter cloacae", "experiment": "Antimicrobial activity against Enterobacter cloacae ATCC 13047 assessed clear zone in inhibition per disk by CLSI disk diffusion susceptibility assay", "assay_type": "functional", "conditions": "not given", "units": {"MIC": "µg"}}
{"smiles": "COc1cc(/C=C/[N+](=O)[O-])cc2c1OCO2", "MIC": ">100"}
{"system": "Neisseria gonorrhoeae", "experiment": "Antimicrobial activity against Neisseria gonorrhoeae ATCC 49226 by broth microdilution susceptibility assay", "assay_type": "functional", "conditions": "not given", "units": {"MIC": "µg/mL"}}
{"smiles": "COc1cc(/C=C/[N+](=O)[O-])cc2c1OCO2", "MIC": "> 64"}
{"system": "Streptococcus pneumoniae", "experiment": "Antimicrobial activity against Streptococcus pneumoniae ATCC 6303 assessed clear zone in inhibition per disk by CLSI disk diffusion susceptibility assay", "assay_type": "functional", "conditions": "not given", "units": {"MIC": "µg"}}
{"smiles": "COc1cc(/C=C/[N+](=O)[O-])cc2c1OCO2", "MIC": ">100"}
{"system": "Enterobacter cloacae", "experiment": "Antimicrobial activity against Enterobacter cloacae ATCC 13047 by broth microdilution susceptibility assay", "assay_type": "functional", "conditions": "not given", "units": {"MIC": "µg/mL"}}
{"smiles": "COc1cc(/C=C/[N+](=O)[O-])cc2c1OCO2", "MIC": "> 64"}
{"system": "Cryptococcus neoformans", "experiment": "Antifungal activity against Cryptococcus neoformans ATCC 90112 after 48 hrs by broth microdilution susceptibility assay", "assay_type": "functional", "conditions": "ATCC 90112, 48 h", "units": {"MFC": "µg/mL"}}
{"smiles": "COc1cc(/C=C/[N+](=O)[O-])cc2c1OCO2", "MFC": "> 64"}
{"system": "A498", "experiment": "Cytotoxicity against human A498 cells after 48 hrs by sulforhodamine B assay", "assay_type": "functional", "conditions": "not given"}
{"smiles": "COc1cc(/C=C/[N+](=O)[O-])cc2c1OCO2", "GI50": "inactive"}
{"system": "Stenotrophomonas maltophilia", "experiment": "Antimicrobial activity against Stenotrophomonas maltophilia ATCC 13637 by broth microdilution susceptibility assay", "assay_type": "functional", "conditions": "not given", "units": {"MIC": "µg/mL"}}
{"smiles": "COc1cc(/C=C/[N+](=O)[O-])cc2c1OCO2", "MIC": "> 64"}
{"system": "Staphylococcus aureus", "experiment": "Antimicrobial activity against Staphylococcus aureus ATCC 29213 by broth microdilution susceptibility assay", "assay_type": "functional", "conditions": "not given", "units": {"MIC": "µg/mL"}}
{"smiles": "COc1cc(/C=C/[N+](=O)[O-])cc2c1OCO2", "MIC": "> 64"}
{"system": "P388", "experiment": "Cytotoxicity against mouse P388 cells after 48 hrs by sulforhodamine B assay", "assay_type": "functional", "conditions": "not given"}
{"smiles": "COc1cc(/C=C/[N+](=O)[O-])cc2c1OCO2", "ED50": "inactive"}
{"system": "Candida albicans", "experiment": "Antifungal activity against Candida albicans ATCC 90028 after 48 hrs by broth microdilution susceptibility assay", "assay_type": "functional", "conditions": "ATCC 90028, 48 h", "units": {"MIC": "µg/mL"}}
{"smiles": "COc1cc(/C=C/[N+](=O)[O-])cc2c1OCO2", "MIC": "> 64"}
{"system": "Micrococcus luteus", "experiment": "Antimicrobial activity against Micrococcus luteus Presque Isle 456 assessed clear zone in inhibition per disk by CLSI disk diffusion susceptibility assay", "assay_type": "functional", "conditions": "not given", "units": {"MIC": "µg"}}
{"smiles": "COc1cc(/C=C/[N+](=O)[O-])cc2c1OCO2", "MIC": ">100"}
{"system": "SF-295", "experiment": "Cytotoxicity against human SF295 cells after 48 hrs by sulforhodamine B assay", "assay_type": "functional", "conditions": "not given"}
{"smiles": "COc1cc(/C=C/[N+](=O)[O-])cc2c1OCO2", "GI50": "inactive"}
{"system": "not listed separately", "experiment": "Inhibition of tubulin polymerization", "conditions": "not given", "units": {"IC50": "µM"}}
{"smiles": "COc1cc(/C=C/[N+](=O)[O-])cc2c1OCO2", "IC50": 5.6}
{"system": "Neisseria gonorrhoeae", "experiment": "Antimicrobial activity against Neisseria gonorrhoeae ATCC 49226 assessed clear zone of inhibition measured per disk by CLSI disk diffusion susceptibility assay", "assay_type": "functional", "conditions": "not given", "units": {"MIC": "µg"}}
{"smiles": "COc1cc(/C=C/[N+](=O)[O-])cc2c1OCO2", "MIC": 1.56}
{"system": "SK-MEL-5", "experiment": "Cytotoxicity against human SK-MEL-5 cells after 48 hrs by sulforhodamine B assay", "assay_type": "functional", "conditions": "not given"}
{"smiles": "COc1cc(/C=C/[N+](=O)[O-])cc2c1OCO2", "GI50": "inactive"}
{"system": "Enterococcus faecalis", "experiment": "Antimicrobial activity against Enterococcus faecalis ATCC 29212 assessed clear zone in inhibition per disk by CLSI disk diffusion susceptibility assay", "assay_type": "functional", "conditions": "not given", "units": {"MIC": "µg"}}
{"smiles": "COc1cc(/C=C/[N+](=O)[O-])cc2c1OCO2", "MIC": ">100"}
{"system": "Cryptococcus neoformans", "experiment": "Antimicrobial activity against Cryptococcus neoformans ATCC 90112 assessed clear zone in inhibition per disk by CLSI disk diffusion susceptibility assay", "assay_type": "functional", "conditions": "not given", "units": {"MIC": "µg"}}
{"smiles": "COc1cc(/C=C/[N+](=O)[O-])cc2c1OCO2", "MIC": 3.12}
{"system": "Escherichia coli", "experiment": "Antimicrobial activity against Escherichia coli ATCC 25922 by broth microdilution susceptibility assay", "assay_type": "functional", "conditions": "not given", "units": {"MIC": "µg/mL"}}
{"smiles": "COc1cc(/C=C/[N+](=O)[O-])cc2c1OCO2", "MIC": "> 64"}
{"system": "MCF7", "experiment": "Cytotoxicity against human MCF7 cells after 48 hrs by sulforhodamine B assay", "assay_type": "functional", "conditions": "not given"}
{"smiles": "COc1cc(/C=C/[N+](=O)[O-])cc2c1OCO2", "GI50": "inactive"}
{"system": "DU-145", "experiment": "Cytotoxicity against human DU145 cells after 48 hrs by sulforhodamine B assay", "assay_type": "functional", "conditions": "not given"}
{"smiles": "COc1cc(/C=C/[N+](=O)[O-])cc2c1OCO2", "GI50": "inactive"}
